Test results from the supplement of paper PMC11451515.

Test system: NOMO1
Test: cell viability relative to DMSO control; higher = less cytotoxic
Details: RPMI 5 mM glucose + 10% dialyzed FBS, 48 h
Method in brief: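 Cells were incubated for 48 h at 37°C before CellTiter-Glo One luminescence was read. The cells were NOMO1 or SEM (500 cells/well) or P12-Ichikawa (1000 cells/well) leukemia cells, adapted for at least four passages in each medium and seeded in 1536-well plates (5 μl). Dosing used library compounds in DMSO applied by pin over 11 threefold points, 47 μM to 0.79 nM. Viability is the per-plate percentage of DMSO wells, with cell-free wells as background.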

Cc1c(C(=O)NN2CCCCC2)nn(-c2ccc(Cl)cc2Cl)c1-c1ccc(Cl)cc1
Details	cell viability [%]
0.000781 µM	122
0.00234 µM	120
0.00702 µM	125
0.0211 µM	143
0.0632 µM	128
0.19 µM	138
0.569 µM	76.3
1.71 µM	46.8
5.12 µM	32.8
15.4 µM	28.1
46.1 µM	36
